# Data as given in patent US9012655B2, “Antimicrobial/adjuvant compounds and methods” (Denouamed, Inc., priority 2011, dated 2015).
# Experiments:
# Format in all cases: cell-based
# E. coli D22 = assay: MIC, NCCLS M7-A6 broth microdilution, E. coli D22; conditions: 35 degrees Celsius; for MIC: Escherichia coli, D22, 16 to 20 h
# Procedure, shortened: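 Broth microdilution per NCCLS M7-A6 in cation-adjusted Mueller-Hinton broth, doubling dilutions, inoculum 5×10^5 CFU/mL, DMSO controls included. Read after 16–20 h at 35 °C in ambient air; MIC is lowest concentration preventing visible growth.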
# [1] = system: Staphylococcus aureus EUP MRSA002; assay: MIC panel of challenge pathogens (CLSI), EUP MRSA002; conditions: Staphylococcus aureus EUP MRSA002; for MIC / MIC50 / MIC80: EUPMRSA002; for MIC: read-out: 100% inhibition; for MIC50: read-out: MIC50 (50%); for MIC80: read-out: MIC80 (80%)
# Procedure: The inocula for each bacterial strain were prepared by picking 5-10 distinct colonies from the culture plates and suspending them in the appropriate broth as per Clinical and Laboratory Standards Institute (CLSI) guidelines M07-A8, M24-A or M11-A7 as appropriate. The inoculum was resuspended by vigorous shaking on a vortex mixer for 15 s. The turbidity was then adjusted to McFarland standard 0.5 ([…]). The inoculum was further diluted in the appropriate media for MIC tests to give a final inoculum in each well of 2-8×10^5 CFU/ml. MICs were tested in the appropriate broth in accordance with the appropriate CLSI guidelines.
# A stock solution of each compound was prepared at a concentration of 1.28 g/L in DMSO. The stock was further diluted in the appropriate media to give a top starting concentration of 128 mg/L in the assay. 100 μL of the appropriate media, as per CLSI guidelines, was dispensed into each well in columns 2-12. 200 μL of the each compound solution (at 256 mg/L) was dispensed into each well in column 1. 100 μL aliquots were pipetted from column 1 wells and dispensed into column 2 with a multichannel pipette (±2% coefficient of variation) thus diluting two-fold. 100 μL samples were then pipetted from column 2 wells and dispensed into column 3. The process was repeated through to column 10. The final 100 μL of diluted drug from column 10 was then discarded. Row 11 acted as a positive control (no compound, but organisms added), Row 12 acted as a negative control (no compound, and no organisms added).
# 100 μL of the appropriate inoculum suspension in the appropriate media, as per CLSI guidelines, was added to the appropriate wells. […] All plates were incubated in the dark under aerobic or anaerobic conditions at 30-37° C. for 24-48 hours, according to the appropriate CLSI guideline. Plates were read visually 24-48 hours post inoculation. Endpoints of 100% inhibition were determined (CLSI interpretation endpoints following visual examination).
# MIC50, MIC80, and 100% inhibition results are reported below in μg/mL in the following Tables, indicating each compound tested against a given species and strain: […]
# [2] = system: Staphylococcus aureus AUR59 7005; assay: MIC panel of challenge pathogens (CLSI); conditions: Staphylococcus aureus AUR59 7005; for MIC / MIC50 / MIC80: AUR597005; for MIC: read-out: 100% inhibition; for MIC50: read-out: MIC50 (50%); for MIC80: read-out: MIC80 (80%)
# Procedure, shortened: (§1)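 Broth microdilution per CLSI guidelines. Final inoculum 2-8×10^5 CFU/ml, compounds serially two-fold diluted from 128 mg/L top concentration. Incubated in the dark at 30-37° C for 24-48 h, aerobic or anaerobic as appropriate. MIC read visually as 100% inhibition endpoint; MIC50 and MIC80 also reported.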
# [3] = system: Staphylococcus aureus NRS1 (ATCC700699); assay: MIC panel of challenge pathogens (CLSI); conditions: Staphylococcus aureus NRS1 (ATCC700699); for MIC: read-out: 100% inhibition; for MIC50: read-out: MIC50 (50%); for MIC80: read-out: MIC80 (80%)
# Procedure, shortened: as §1
# [4] = system: Enterococcus faecium ATCC700221; assay: MIC panel of challenge pathogens (CLSI); conditions: Enterococcus faecium ATCC700221; for MIC: read-out: 100% inhibition; for MIC50: read-out: MIC50 (50%); for MIC80: read-out: MIC80 (80%)
# Procedure, shortened: as §1
# [5] = system: Staphylococcus epidermidis NRS7; assay: MIC panel of challenge pathogens (CLSI); conditions: Staphylococcus epidermidis NRS7; for MIC: read-out: 100% inhibition; for MIC50: read-out: MIC50 (50%); for MIC80: read-out: MIC80 (80%)
# Procedure, shortened: as §1
# [6] = system: Staphylococcus aureus EUP MRSA002; assay: MIC panel of challenge pathogens (CLSI); conditions: Staphylococcus aureus EUP MRSA002; for MIC / MIC50 / MIC80: EUPMRSA002; for MIC: read-out: 100% inhibition; for MIC50: read-out: MIC50 (50%); for MIC80: read-out: MIC80 (80%)
# Procedure, shortened: as §1
# [7] = system: Staphylococcus epidermidis NRS122; assay: MIC panel of challenge pathogens (CLSI); conditions: Staphylococcus epidermidis NRS122; for MIC: read-out: 100% inhibition; for MIC50: read-out: MIC50 (50%); for MIC80: read-out: MIC80 (80%)
# Procedure, shortened: as §1
# [8] = system: Staphylococcus aureus ATCC43300; assay: MIC panel of challenge pathogens (CLSI); conditions: Staphylococcus aureus ATCC43300; for MIC: read-out: 100% inhibition; for MIC50: read-out: MIC50 (50%); for MIC80: read-out: MIC80 (80%)
# Procedure, shortened: as §1
# Bacillus cereus NCTC6349 = assay: MIC panel of challenge pathogens (CLSI); conditions: Bacillus cereus NCTC6349; for MIC: read-out: 100% inhibition; for MIC50: read-out: MIC50 (50%); for MIC80: read-out: MIC80 (80%)
# Procedure, shortened: as §1
# [9] = system: Enterococcus faecalis ATCC29212; assay: MIC panel of challenge pathogens (CLSI); conditions: Enterococcus faecalis ATCC29212; for MIC: read-out: 100% inhibition; for MIC50: read-out: MIC50 (50%); for MIC80: read-out: MIC80 (80%)
# Procedure, shortened: as §1
# [10] = system: Staphylococcus aureus AUR60 7005; assay: MIC panel of challenge pathogens (CLSI); conditions: Staphylococcus aureus AUR60 7005; for MIC / MIC50 / MIC80: AUR607005; for MIC: read-out: 100% inhibition; for MIC50: read-out: MIC50 (50%); for MIC80: read-out: MIC80 (80%)
# Procedure, shortened: as §1
smiles,measurement,setting,value
Cc1ccc(-c2cc(-c3nn[nH]n3)cc(-c3ccccc3-c3ccccc3)c2)c2ccccc12 [DNM0474],MIC E coli D22,E. coli D22; 16 to 20 h,>125 µM
same,100% inhibition,[1],0.5 µg/mL
same,MIC50 (50%),[1],0.5 mg/L
same,MIC80 (80%),[1],0.5 mg/L
same,100% inhibition,[2],0.5 µg/mL
same,MIC50 (50%),[2],0.5 mg/L
same,MIC80 (80%),[2],0.5 mg/L
same,100% inhibition,[3],0.5 µg/mL
same,MIC50 (50%),[3],0.25 mg/L
same,MIC80 (80%),[3],0.5 mg/L
same,100% inhibition,[4],1 µg/mL
same,MIC50 (50%),[4],1 mg/L
same,MIC80 (80%),[4],1 mg/L
same,100% inhibition,[5],1 µg/mL
same,MIC50 (50%),[5],0.5 mg/L
same,MIC80 (80%),[5],1 mg/L
same,100% inhibition,[6],1 µg/mL
same,MIC50 (50%),[6],1 mg/L
same,MIC80 (80%),[6],1 mg/L
same,100% inhibition,[7],16 µg/mL
same,MIC50 (50%),[7],4 mg/L
same,MIC80 (80%),[7],8 mg/L
same,100% inhibition,[8],0.5 µg/mL
same,MIC50 (50%),[8],0.5 mg/L
same,MIC80 (80%),[8],0.5 mg/L
same,100% inhibition,Bacillus cereus NCTC6349,≦0.25 μg/mL
same,MIC50 (50%),Bacillus cereus NCTC6349,≦0.25 μg/mL
same,MIC80 (80%),Bacillus cereus NCTC6349,≦0.25 μg/mL
same,100% inhibition,[9],1 µg/mL
same,MIC50 (50%),[9],1 mg/L
same,MIC80 (80%),[9],1 mg/L
same,100% inhibition,[10],0.5 µg/mL
same,MIC50 (50%),[10],0.5 mg/L
same,MIC80 (80%),[10],0.5 mg/L
"Cc1cc(Cl)ccc1-c1cc(-c2nnn[nH]2)sc1-c1ccc(Cl)cc1C [DNM0488, 5-(4,5-Bis(4-chloro-2-methylphenyl)thiophen-2-yl)-1H-tetrazole]",MIC,E. coli D22,125 µM
same,MIC,[1],0.5 mg/L
same,MIC50,[1],0.5 mg/L
same,MIC80,[1],0.5 mg/L
same,MIC,[2],0.5 mg/L
same,MIC50,[2],0.5 mg/L
same,MIC80,[2],0.5 mg/L
same,MIC,[3],≤ 0.25 mg/L
same,MIC50,[3],≤ 0.25 mg/L
same,MIC80,[3],≤ 0.25 mg/L
same,MIC,[4],0.5 mg/L
same,MIC50,[4],0.25 mg/L
same,MIC80,[4],0.25 mg/L
same,MIC,[5],0.5 mg/L
same,MIC50,[5],0.25 mg/L
same,MIC80,[5],0.25 mg/L
same,MIC,[6],1 mg/L
same,MIC50,[6],0.5 mg/L
same,MIC80,[6],1 mg/L
same,MIC,[7],2 mg/L
same,MIC50,[7],1 mg/L
same,MIC80,[7],2 mg/L
same,MIC,[8],0.5 mg/L
same,MIC50,[8],0.5 mg/L
same,MIC80,[8],0.5 mg/L
same,MIC,Bacillus cereus NCTC6349,≤ 0.25 mg/L
same,MIC50,Bacillus cereus NCTC6349,≤ 0.25 mg/L
same,MIC80,Bacillus cereus NCTC6349,≤ 0.25 mg/L
same,MIC,[9],0.5 mg/L
same,MIC50,[9],0.5 mg/L
same,MIC80,[9],0.5 mg/L
same,MIC,[10],0.5 mg/L
same,MIC50,[10],0.5 mg/L
same,MIC80,[10],0.5 mg/L
"Cc1ccc(Cl)cc1-c1cc(-c2nnn[nH]2)sc1-c1cc(Cl)ccc1C [DNM0508, 5-(4,5-Bis(5-chloro-2-methylphenyl)thiophen-2-yl)-1H-tetrazole]",MIC,E. coli D22,> 125 µM
same,MIC,[1],1 mg/L
same,MIC50,[1],1 mg/L
same,MIC80,[1],1 mg/L
same,MIC,[2],1 mg/L
same,MIC50,[2],1 mg/L
same,MIC80,[2],1 mg/L
same,MIC,[3],1 mg/L
same,MIC50,[3],0.5 mg/L
same,MIC80,[3],1 mg/L
same,MIC,[4],1 mg/L
same,MIC50,[4],1 mg/L
same,MIC80,[4],1 mg/L
same,MIC,[5],1 mg/L
same,MIC50,[5],0.5 mg/L
same,MIC80,[5],0.5 mg/L
same,MIC,[6],1 mg/L
same,MIC50,[6],0.5 mg/L
same,MIC80,[6],1 mg/L
same,MIC,[7],8 mg/L
same,MIC50,[7],4 mg/L
same,MIC80,[7],8 mg/L
same,MIC,[8],1 mg/L
same,MIC50,[8],1 mg/L
same,MIC80,[8],1 mg/L
same,MIC,Bacillus cereus NCTC6349,0.5 mg/L
same,MIC50,Bacillus cereus NCTC6349,0.5 mg/L
same,MIC80,Bacillus cereus NCTC6349,0.5 mg/L
same,MIC,[9],2 mg/L
same,MIC50,[9],2 mg/L
same,MIC80,[9],2 mg/L
same,MIC,[10],1 mg/L
same,MIC50,[10],1 mg/L
same,MIC80,[10],1 mg/L
